Assay results taken from the METLIN SMRT retention time set (Domingo-Almenara et al. 2019).

Assay: gradient 5% acetonitrile 3 min, to 50% in 2 min, to 85% in 15 min, held 3 min, 100 µL/min
Details: column: Zorbax Extend-C18 2.1 x 50 mm; eluents: water / acetonitrile, 0.1% formic acid
Method in brief: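 A Zorbax Extend-C18 column (2.1 × 50 mm, 1.8 μm) run at 100 μL/min with water and acetonitrile, both containing 0.1% formic acid, separated mixtures of ~100 pure standards. The HPLC was coupled to a quadrupole time-of-flight mass spectrometer operated in positive and negative ionization mode, with dead and dwell volumes of 40 μL and 900 μL. Each retention time was taken from a computationally picked adduct peak that was then manually inspected.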
Molecule `COc1cccc(-c2nc(C3CCN(S(=O)(=O)c4ccc(C)c(C)c4)CC3)no2)c1` has an RP-LC retention time of 1180 s. `O=C(Cn1cnc2nc(N3CCCC(C(=O)NC4CC4)C3)sc2c1=O)Nc1cc(F)cc(F)c1` (centres undefined) showed an RP-LC retention time of 717 s. With `COc1cccc(/C=C/c2nc(-c3ccc4oc(C)nc4c3)no2)c1` the RP-LC retention time was 1110 s. Work on `COc1ccc(-c2noc(C3CCCN3C(=O)Nc3ccc(C)c(C)c3)n2)cc1` (centres undefined) yielded an RP-LC retention time of 925 s. For `CCCc1noc(-c2cccnc2N2CCCN(Cc3ccccc3C)CC2)n1`, the RP-LC retention time was 740 s. In the case of `COc1ccc(-c2noc(C3CCCN3C(=O)NC3CCCC3)n2)cc1` (centres undefined), the RP-LC retention time is reported as 881 s. In the case of `Cc1cc(NC(C)C)n2nc(-c3ccc(Cl)cc3)c(C)c2n1`, the RP-LC retention time is reported as 761 s. `COc1ccc2cc(C(=O)N3CCCC(c4nnc(-c5ccccc5F)s4)C3)[nH]c2c1` (centres undefined) gave an RP-LC retention time of 918 s. `COc1ccccc1N1CCN(c2cc(SCC(=O)Nc3cccc(Cl)c3)ncn2)CC1` showed an RP-LC retention time of 1030 s. Molecule `CSc1ccc(NC(=O)N2CCN(c3ccc(C(F)(F)F)cn3)CC2)cc1` has an RP-LC retention time of 1010 s. Molecule `O=C(Cn1nc2c3cc(Cl)ccc3ncn2c1=O)Nc1ccccc1` has an RP-LC retention time of 718 s. Work on `COC(=O)c1cc(OC)c(OC)cc1NC(=O)c1c(C)coc1C` yielded an RP-LC retention time of 940 s. Work on `COc1ccc2nc(C(=O)NCc3ccccc3F)cn2n1` yielded an RP-LC retention time of 806 s. With `CCOC(=O)c1noc2nc(C)nc(NCC3CCN(Cc4cccc(C)c4)CC3)c12` the RP-LC retention time was 609 s. `COc1ccc(N2CCN(CCCNC(=O)NC3COc4ccc(OC)cc4C3)CC2)cc1` (centres undefined) showed an RP-LC retention time of 687 s. `O=C(c1ccc(-c2cccnc2)nc1)N1CCN(c2cccc(Cl)c2)CC1` gave an RP-LC retention time of 726 s. For `COc1ccc(C(=O)NC2CCN(c3ccc(=O)[nH]n3)C2)c(OC)n1` (centres undefined), the RP-LC retention time was 660 s. In the case of `COCC(=O)NC1CCC12CCN(S(=O)(=O)c1c(C)nn(C)c1C)CC2` (centres undefined), the RP-LC retention time is reported as 657 s. For `Cc1ccccc1S(=O)(=O)N1CCC(C(=O)NCc2csc(-c3cccs3)n2)CC1`, the RP-LC retention time was 898 s. Work on `CCNC(=O)c1cc(C)nc2c(C)cc(C)cc12` yielded an RP-LC retention time of 594 s. `Cc1ccc(-c2nc3cnccn3c2Nc2cccc(C)c2C)cc1` showed an RP-LC retention time of 1040 s. Molecule `Cc1noc(C)c1CNC(=O)c1ccc2[nH]ccc2c1` has an RP-LC retention time of 574 s. In the case of `CCN1C(=O)C(C)(C(=O)NCc2ccccc2Cl)Oc2cccnc21` (centres undefined), the RP-LC retention time is reported as 890 s. `CN(C)c1ccc(CNc2ncccc2-c2nnc(-c3ccccc3)o2)cc1` showed an RP-LC retention time of 884 s. Work on `CC(C)Oc1ccc(CNC(=O)C2CCCN(c3ccc(=O)n(-c4cccc(Cl)c4)n3)C2)cc1` (centres undefined) yielded an RP-LC retention time of 946 s. `CCCn1c(C(=O)NN2CCCC2=O)cc2c(=O)n(C)c(=O)n(C)c21` showed an RP-LC retention time of 592 s. In the case of `O=C(CCc1nc2ccccc2n(CC(=O)NC2CCCCC2)c1=O)NC1CCCCC1`, the RP-LC retention time is reported as 844 s. With `O=C(Nc1ccc(F)cc1)N1CCC(n2cnc3c(Cl)cccc3c2=O)CC1` the RP-LC retention time was 805 s. For `O=C(C1CCOC1)N1CCC(c2nncn2Cc2ccccc2)CC1` (centres undefined), the RP-LC retention time was 541 s. Molecule `Cc1ccc(S(=O)(=O)N2CCC(c3nc(C(=O)N4CCOCC4)c(C)o3)CC2)cc1C` has an RP-LC retention time of 870 s. Work on `COc1ccc(OC)c(NC(=O)N2CCC3(CC2)Nc2ccccc2-n2cccc23)c1` yielded an RP-LC retention time of 1040 s. Molecule `O=C(Cn1cnc2nc3c(cc2c1=O)CCCC3)Nc1ccccc1Cl` has an RP-LC retention time of 720 s. Molecule `Cc1coc2c(C)c3oc(=O)c(CCC(=O)N4CCN(c5ccccn5)CC4)c(C)c3cc12` has an RP-LC retention time of 795 s. Molecule `CN(C)C(=O)N1CC(c2noc(-c3cccnc3)n2)C2(CCOCC2)C1` (centres undefined) has an RP-LC retention time of 634 s. In the case of `O=C(Nc1ccccc1)C1CC(=O)N(c2n[nH]c3cccc(F)c23)C1` (centres undefined), the RP-LC retention time is reported as 730 s. Molecule `CCc1ccccc1NC(=O)C1CCN(S(C)(=O)=O)c2cc(C)ccc2O1` (centres undefined) has an RP-LC retention time of 880 s. For `Fc1cccc(-c2noc(Cc3nnc(-c4cccc(Cl)c4)o3)n2)c1`, the RP-LC retention time was 1110 s. Molecule `Cn1nc(-c2nc(Cc3ccccc3)no2)c2c1CCN(C(=O)C(C)(C)C)C2` has an RP-LC retention time of 937 s. `O=C(Nc1ccc(F)cc1F)[C@@H]1OCC(=O)N(C2CC2)[C@H]1c1ccccc1` showed an RP-LC retention time of 785 s. `CCc1ccc(NC(=O)C2CCN(c3cncnc3N3CCOCC3)CC2)cc1` gave an RP-LC retention time of 675 s. `CCC(C)NS(=O)(=O)c1ccccc1-c1nc(-c2ccc(C)cc2)no1` (centres undefined) showed an RP-LC retention time of 1270 s. For `Cc1nn(C)c2nc(OC(C)C(=O)NCc3ccc(Cl)cc3)cc(C(F)(F)F)c12` (centres undefined), the RP-LC retention time was 1020 s. With `COc1ccc(N2CC(c3nc(-c4oc5ccc(OC)cc5c4C)no3)CC2=O)cc1` (centres undefined) the RP-LC retention time was 1020 s. For `O=C(Cn1cccc1-c1nc(-c2ccccc2)cs1)N1CCC(N2CCCCC2)CC1`, the RP-LC retention time was 716 s. `CC(=O)c1ccc(NC(=O)C2Oc3ccccc3NC2=O)cc1` (centres undefined) gave an RP-LC retention time of 683 s. In the case of `O=c1ccc(-c2ccc3c(c2)OCO3)nn1CCc1nc(-c2ccccc2)no1`, the RP-LC retention time is reported as 908 s. In the case of `Cc1ccccc1NC(=O)Cn1cnc2c(sc3nc(-c4ccccc4)ccc32)c1=O`, the RP-LC retention time is reported as 961 s. For `CC(C)CN1CCN(S(=O)(=O)c2ccc(-c3nnc(C4CCCC4)o3)o2)CC1`, the RP-LC retention time was 692 s. Molecule `O=C(CC1CCCCC1)NC1CCN(c2cc(-c3cccnc3)[nH]n2)CC1` has an RP-LC retention time of 633 s. `Cc1noc2nc(CCC(=O)NCc3ccc(F)cc3Cl)nc(N3CCOCC3)c12` gave an RP-LC retention time of 666 s. Work on `O=C(CSc1nnc2c3sc(N4CCCC4)nc3ncn12)Nc1ccc(F)cc1Cl` yielded an RP-LC retention time of 869 s. Molecule `O=C1COc2ccc(-c3csc(NC(=O)c4ccc(F)cc4)n3)cc2N1` has an RP-LC retention time of 838 s. For `Cc1ccc(C)c(NC(=O)N(C)CC2CCOC2)c1` (centres undefined), the RP-LC retention time was 705 s. For `COc1ccc(-c2nnc(-c3cc(S(N)(=O)=O)ccc3Cl)o2)cc1`, the RP-LC retention time was 792 s. `O=C(Nc1ccccc1F)N1CCc2nnc(C3CC3)n2CC1` gave an RP-LC retention time of 592 s. Work on `CC(C)c1ccc(S(=O)(=O)N2CCCC2c2nc(-c3ccc(Cl)cc3)no2)cc1` (centres undefined) yielded an RP-LC retention time of 1360 s. With `O=C(Cn1c(=O)c(CCC(=O)NC2CC2)nc2ccccc21)NCc1ccccc1Br` the RP-LC retention time was 736 s. For `CCC(C)NC(=O)Cn1nc(C)c2sc(-c3ccccc3)nc2c1=O` (centres undefined), the RP-LC retention time was 765 s. For `CCNC(=O)c1ccc(-c2ccc3c(c2)CCN3C(C)=O)cc1`, the RP-LC retention time was 691 s. In the case of `Cn1ccc2cc(CCC(=O)NCc3ccncc3)ccc21`, the RP-LC retention time is reported as 596 s. With `Cc1ccc(NC(=O)C2CC(=O)N(c3ccc4oc(C)nc4c3)C2)c(F)c1` (centres undefined) the RP-LC retention time was 741 s. `COC(=O)c1ccc2nc(NC(=O)C3CCCCC3)sc2c1` gave an RP-LC retention time of 932 s. `COc1ccc(CCC(=O)NCC(C)(O)c2ccccc2)cc1` (centres undefined) showed an RP-LC retention time of 709 s. With `Cc1ccc(S(=O)(=O)N2CCCC(C(=O)Nc3cc(-c4nc(C)cs4)sc3C)C2)cc1` (centres undefined) the RP-LC retention time was 1060 s. For `CCN1CCCC1CNC(=O)c1cc(S(=O)(=O)CC)c(N)cc1OC` (centres undefined), the RP-LC retention time was 591 s. `O=C(NC1CCS(=O)(=O)C1)C1CCN(C(=O)C2CC(=O)N(c3ccc(F)cc3)C2)CC1` (centres undefined) showed an RP-LC retention time of 633 s. With `CCN1C(=O)c2cccnc2Sc2cc(NC(=O)c3c(F)cccc3Cl)ccc21` the RP-LC retention time was 850 s. With `COc1ccc(-c2noc(CN3C(=O)C(C)Oc4ccccc43)n2)c(OC)c1` (centres undefined) the RP-LC retention time was 956 s. In the case of `Cc1ncc2c(n1)CCCN(CC(=O)NC1CC1)C2=O`, the RP-LC retention time is reported as 567 s. With `CC1CCCCN1c1nc(-c2ccc(C(C)(C)C)cc2)nc2ccccc12` (centres undefined) the RP-LC retention time was 1050 s. `CC(C)NC(=O)c1ccc2cnn(C)c2c1` gave an RP-LC retention time of 667 s. For `Cc1oc2nc3c(c(=O)n(CC(=O)OCc4ccccc4)c(=O)n3C)n2c1C`, the RP-LC retention time was 840 s. `Cc1nnc(-c2ccc3ccn(CC(=O)Nc4cccc(F)c4)c3c2)o1` showed an RP-LC retention time of 808 s. `COc1cc(NC(=O)CN2C(=O)C(C)(C)c3ccccc32)cc(OC)c1OC` gave an RP-LC retention time of 784 s. Work on `O=S(=O)(c1ccc(Cl)cc1)N1CCC(c2nc(-c3cccc(-c4ccn[nH]4)c3)no2)CC1` yielded an RP-LC retention time of 994 s. For `Cc1cccc(-c2noc(-c3cccnc3N3CCN(c4ccccc4)CC3)n2)c1`, the RP-LC retention time was 1400 s. In the case of `COc1cccc(-n2cc(C(=O)Oc3cccnc3)c3ccccc3c2=O)c1`, the RP-LC retention time is reported as 926 s. In the case of `O=C(NC1CC1)c1ccc(OCC2CCN(C(=O)c3ccc(Br)o3)CC2)cc1`, the RP-LC retention time is reported as 830 s. With `O=C(C1CCCN(c2cnc3nccnc3c2)C1)N1CCC(Cc2ccccc2)CC1` (centres undefined) the RP-LC retention time was 892 s. `CCOC(=O)Cc1c(C)nc2c(-c3ccccc3OC)c(C)nn2c1C` gave an RP-LC retention time of 943 s. Work on `COc1ccc(N2CCN(c3cc(SCC(=O)Nc4ccc(OC)c(OC)c4)ncn3)CC2)cc1` yielded an RP-LC retention time of 791 s. `Cc1cc(C)cc(NC(=O)Nc2nccn(-c3ccc4c(c3)CCC4)c2=O)c1` showed an RP-LC retention time of 1210 s. Work on `Cc1ccc(Cl)cc1S(=O)(=O)NCC(O)Cc1ccccc1` (centres undefined) yielded an RP-LC retention time of 858 s. `Cn1c(N2CCN(C(=O)c3cccc(Br)c3)CC2)cc(=O)n(C)c1=O` gave an RP-LC retention time of 672 s. For `COC(=O)c1ccc(Cl)cc1NC(=O)N1CCN(CCn2cnc3cccnc32)CC1`, the RP-LC retention time was 663 s. In the case of `CCCn1cc(C(=O)Nc2ccc3c(c2)OCCO3)c2cccnc21`, the RP-LC retention time is reported as 833 s. In the case of `Cc1ccc(CN2CCCC(c3nc(-c4cnccn4)no3)CCNC(=O)CC2)s1` (centres undefined), the RP-LC retention time is reported as 603 s. `COc1cc(NC(=O)CSc2nccc(N3CCN(c4cc(C)ccc4C)CC3)n2)cc(OC)c1` showed an RP-LC retention time of 673 s. With `CCC(=O)N1CCOc2ccc(N3CCOCC3)cc2C1` the RP-LC retention time was 630 s.
